From patent publication US4241069A, “3-Methylene flavanones and 3-methylene chromanones” (Miles Laboratories, Inc., priority 1979, dated 1980)
≈ marks a conversion by molar mass, not a printed value.

What was measured:
A. fumigatus NRRL 165 = test: MIC, agar incorporation method; format: cell-based; details: Aspergillus fumigatus, NRRL165, 32° C., 48-72 hours, read-out: Minimal Inhibitory Concentration
Procedure: (§1) The compounds of the present invention were tested for their ability to inhibit the growth of microorganisms by in vitro tests. Generally the in vitro tests involve growing representative microorganisms under conditions favorable to such growth and measuring the effectiveness of one or more compounds in inhibiting or destroying the growth of the microorganisms. The microorganisms used include representative bacteria, fungi and yeasts.
(§2) A representative selection of the test microorganisms were cultured in a nutrient broth, such as, for example, Eugon, commercially available from Difco Laboratories, Detroit, Michigan. Bacteria and Candida species were cultured for 24 hours at 32°-37° C. and fungi were cultured for approximately one week at 32° C. Inocula were prepared by suspending the growth or spores from a slant culture in sufficient sterile normal (0.9 percent) saline or Eugon broth, to yield cell or spore concentrations of 1,000,000 cells per milliliter. Anaerobic bacteria were cultured for 48-72 hours at 32°-37° C. in a thioglycollate containing medium, for example, Fluid Thioglycollate medium or NIH thioglycollate broth, commercially available from Difco Laboratories.
(§3) The compounds of the present invention were tested for activity against bacteria, yeasts and fungi by the agar incorporation method described below. MA 1347, 3-(dimethylaminomethyl)flavanone (disclosed in U.S. Pat. No. 3,753,985) was used as a comparative standard along with controls for each solvent system used.
(§4) A series of agar plates containing two-fold dilutions of each compound to be tested, ranging in concentration from 100 to 3.1 mcg/ml of agar medium was prepared. Aliquots of each concentration (100, 50, 25, 12.5, 6.2, and 3.1) prepared in N,N-dimethylformamide or 50 percent aqueous DMF were added to liquid Eugon agar at 48° C. (one part test solution to 100 parts agar). In some cases, tests with further dilutions to 0.125 mcg/ml were conducted. The agar medium, containing the 3-methylene flavanone or chromanone compound to be tested, was then dispensed into petri dishes and allowed to solidify. The solidified plates were kept overnight at room temperatures to dry the surface of the agar.
(§5) The agar plates were then inoculated with a drop of the standardized cell or spore suspension. Inoculated plates were incubated at 32° C. The inhibition end-point or minimum inhibitory concentration (MIC) shown in Table D represent the lowest concentration of test compound which inhibited the growth of the microorganism. Visual determination of growth inhibition was used. Bacteria and yeast end-points were determined after 24 hours incubation; molds, dermatophytes and anaerobes after 48-72 hours incubation. MIC values shown as ranges represent the extremes found in repeat assays. Virtually all such values were written plus or minus one dilution, the accepted variation of a two-fold dilution assay.

[1] = test system: Aspergillus niger ATCC 16404; test: MIC, agar incorporation method; format: cell-based; details: ATCC16404, 32° C., 48-72 hours, read-out: Minimal Inhibitory Concentration
Procedure: as §1, §2, §3, §4, §5

C. albicans NRRL Y-477 = test: MIC, agar incorporation method; format: cell-based; details: Candida albicans, NRRLY477, 32° C., 24 hours, read-out: Minimal Inhibitory Concentration
Procedure: as §1, §2, §3, §4, §5

C. guillermondii VM 42 = test: MIC, agar incorporation method; format: cell-based; details: 32° C., 24 hours; read-out: Minimal Inhibitory Concentration
Procedure: as §1, §2, §3, §4, §5

C. krusei VM 29B = test: MIC, agar incorporation method; format: cell-based; details: Pichia kudriavzevii, VM29B; 32° C., 24 hours; read-out: Minimal Inhibitory Concentration
Procedure: as §1, §2, §3, §4, §5

C. tropicalis NRRL Y1410 = test: MIC, agar incorporation method; format: cell-based; details: Candida tropicalis, NRRLY1410; 32° C., 24 hours; read-out: Minimal Inhibitory Concentration
Procedure: as §1, §2, §3, §4, §5

[2] = test system: Candida albicans ATCC 10231; test: MIC, agar incorporation method; format: cell-based; details: ATCC10231, C. albicans ATCC 10231, 32° C., 24 hours, read-out: Minimal Inhibitory Concentration
Procedure: as §1, §2, §3, §4, §5

[3] = test system: Escherichia coli ATCC 8739; test: MIC, agar incorporation method; format: cell-based; details: ATCC8739, 32° C., 24 hours, read-out: Minimal Inhibitory Concentration
Procedure: as §1, §2, §3, §4, §5

[4] = test system: Microsporum gypseum ATCC 14683; test: MIC, agar incorporation method; format: cell-based; details: Nannizzia gypsea, ATCC14683, 32° C., 48-72 hours; read-out: Minimal Inhibitory Concentration
Procedure: as §1, §2, §3, §4, §5

[5] = test system: Pseudomonas aeruginosa ATCC 14502; test: MIC, agar incorporation method; format: cell-based; details: ATCC14502, 32° C., 24 hours, read-out: Minimal Inhibitory Concentration
Procedure: as §1, §2, §3, §4, §5

[6] = test system: Staphylococcus aureus ATCC 6538; test: MIC, agar incorporation method; format: cell-based; details: Staphylococcus aureus, ATCC6538; S. aureus ATCC 6538; 32° C., 24 hours; read-out: Minimal Inhibitory Concentration
Procedure: as §1, §2, §3, §4, §5

[7] = test system: Streptococcus faecalis ATCC 10541; test: MIC, agar incorporation method; format: cell-based; details: Enterococcus faecalis, ATCC10541; 32° C., 24 hours; read-out: Minimal Inhibitory Concentration
Procedure: as §1, §2, §3, §4, §5

T. mentagrophytes CDC = test: MIC, agar incorporation method; format: cell-based; details: Trichophyton mentagrophytes, 32° C., 48-72 hours, read-out: Minimal Inhibitory Concentration
Procedure: as §1, §2, §3, §4, §5

T. mentagrophytes TM-2 = test: MIC, agar incorporation method; format: cell-based; details: Trichophyton mentagrophytes, TM2, 32° C., 48-72 hours, read-out: Minimal Inhibitory Concentration
Procedure: as §1, §2, §3, §4, §5

T. rubrum ATCC 10218 = test: MIC, agar incorporation method; format: cell-based; details: Trichophyton rubrum, ATCC10218; 32° C., 48-72 hours; read-out: Minimal Inhibitory Concentration
Procedure: as §1, §2, §3, §4, §5

[8] = test system: Trichophyton mentagrophytes ATCC 4807; test: MIC, agar incorporation method; format: cell-based; details: ATCC4807, 32° C., 48-72 hours, read-out: Minimal Inhibitory Concentration
Procedure: as §1, §2, §3, §4, §5

S. aureus NRRL B2747 = test: MIC, agar incorporation method; format: cell-based, Staphylococcus aureus; details: Staphylococcus aureus, NRRLB2747, 32° C., 24 hours, read-out: Minimal Inhibitory Concentration
Procedure: as §1, §2, §3, §4, §5

[9] = test system: Propionobacterium acnes ATCC 6919; test: MIC, agar incorporation method, anaerobic; format: cell-based; details: 48 hours at 35° C., GasPak Anaerobic Jar, read-out: Minimal Inhibitory Concentration
Procedure: as §1, §2, §3, §4, §5
*Anaerobic: 48 hours incubation at 35° C. GasPak Anaerobic Jar

A. fumigatus NRRL 163 = test: MIC, agar incorporation method; format: cell-based; details: Aspergillus fumigatus, NRRL163, NRRL 163; 32° C., 48-72 hours; read-out: Minimal Inhibitory Concentration
Procedure: as §1, §2, §3, §4, §5

| Compound | MIC (A. fumigatus NRRL 165) | MIC [1] | MIC (C. albicans NRRL Y-477) | MIC (C. guillermondii VM 42) | MIC (C. krusei VM 29B) | MIC (C. tropicalis NRRL Y1410) | MIC [2] | MIC [3] | MIC [4] | MIC [5] | MIC [6] | MIC [7] | MIC (T. mentagrophytes CDC) | MIC (T. mentagrophytes TM-2) | MIC (T. rubrum ATCC 10218) | MIC [8] | MIC (S. aureus NRRL B2747) | MIC [9] | MIC (A. fumigatus NRRL 163) |
| --- | --- | --- | --- | --- | --- | --- | --- | --- | --- | --- | --- | --- | --- | --- | --- | --- | --- | --- | --- |
| C=C1C(=O)c2ccccc2OC1c1cccc(OC)c1 (stereo not drawn) [Ex. 7, 3'-methoxy-3-methylene flavanone] | > 100 µg/mL | > 100 µg/mL | 100 µg/mL (≈ 376 µM) | > 100 µg/mL | 100 µg/mL (≈ 376 µM) | > 100 µg/mL | > 100 µg/mL | > 100 µg/mL | 25 µg/mL (≈ 93.9 µM) | > 100 µg/mL | 25 µg/mL (≈ 93.9 µM) | 100 µg/mL (≈ 376 µM) | 25 µg/mL (≈ 93.9 µM) | 25 µg/mL (≈ 93.9 µM) | 12.5 µg/mL (≈ 46.9 µM) | 25 µg/mL (≈ 93.9 µM) | 25 µg/mL (≈ 93.9 µM) | – | – |
| C=C1C(=O)c2ccccc2OC1c1ccc(C(C)(C)C)cc1 (stereo not drawn) [Ex. 14, 4'-t-butyl-3-methylene flavanone] | – | 100 µg/mL (≈ 342 µM) | – | > 100 µg/mL | 50 µg/mL (≈ 171 µM) | > 100 µg/mL | – | > 100 µg/mL | 12.5 to 25 µg/mL (≈ 42.8 to 85.5 µM) | > 100 µg/mL | ≤ 3.1 µg/mL | 25 to 50 µg/mL (≈ 85.5 to 171 µM) | 25 µg/mL (≈ 85.5 µM) | 25 µg/mL (≈ 85.5 µM) | 12.5 to 25 µg/mL (≈ 42.8 to 85.5 µM) | 25 µg/mL (≈ 85.5 µM) | 3.1 to 6.2 µg/mL (≈ 10.6 to 21.2 µM) | ≤ 100 µg/mL | – |
| C=C1C(=O)c2ccccc2OC1c1ccc(Br)cc1 (stereo not drawn) [Ex. 6, 4'-bromo-3-methylene flavanone] | 50 µg/mL (≈ 159 µM) | 50 µg/mL (≈ 159 µM) | 25 µg/mL (≈ 79.3 µM) | 25 µg/mL (≈ 79.3 µM) | 25 µg/mL (≈ 79.3 µM) | 25 µg/mL (≈ 79.3 µM) | 25 µg/mL (≈ 79.3 µM) | > 100 µg/mL | 6.2 µg/mL (≈ 19.7 µM) | > 100 µg/mL | ≤ 3.1 µg/mL | 25 µg/mL (≈ 79.3 µM) | 12.5 µg/mL (≈ 39.7 µM) | 6.2 µg/mL (≈ 19.7 µM) | 6.2 µg/mL (≈ 19.7 µM) | 6.2 µg/mL (≈ 19.7 µM) | 6.2 µg/mL (≈ 19.7 µM) | – | – |
| C=C1C(=O)c2ccc(OC)cc2OC1c1ccc(Cl)cc1 (stereo not drawn) [Ex. 18, 4'-chloro-7-methoxy-3-methylene flavanone] | – | 25 µg/mL (≈ 83.1 µM) | 50 µg/mL (≈ 166 µM) | > 100 µg/mL | 25 µg/mL (≈ 83.1 µM) | > 100 µg/mL | 50 µg/mL (≈ 166 µM) | > 100 µg/mL | 6.2 µg/mL (≈ 20.6 µM) | > 100 µg/mL | ≤ 3.1 µg/mL | 50 µg/mL (≈ 166 µM) | 12.5 µg/mL (≈ 41.6 µM) | 12.5 µg/mL (≈ 41.6 µM) | 12.5 µg/mL (≈ 41.6 µM) | 12.5 µg/mL (≈ 41.6 µM) | 6.2 µg/mL (≈ 20.6 µM) | ≤ 100 µg/mL | 12.5 µg/mL (≈ 41.6 µM) |
| C=C1C(=O)c2ccccc2OC1c1cccc(Cl)c1 (stereo not drawn) [Ex. 2, 3'-chloro-3-methylene flavanone] | 100 µg/mL (≈ 369 µM) | 100 µg/mL (≈ 369 µM) | 25 µg/mL (≈ 92.3 µM) | 50 µg/mL (≈ 185 µM) | 25 µg/mL (≈ 92.3 µM) | 50 µg/mL (≈ 185 µM) | 25 µg/mL (≈ 92.3 µM) | > 100 µg/mL | 6.2 µg/mL (≈ 22.9 µM) | > 100 µg/mL | ≤ 3.1 µg/mL | 25 µg/mL (≈ 92.3 µM) | 12.5 µg/mL (≈ 46.2 µM) | 6.2 µg/mL (≈ 22.9 µM) | ≤ 3.1 µg/mL | 6.2 µg/mL (≈ 22.9 µM) | 6.2 µg/mL (≈ 22.9 µM) | – | – |
| C=C1C(=O)c2ccccc2OC1c1ccc(OC)cc1 (stereo not drawn) [Ex. 8, 4'-methoxy-3-methylene flavanone] | – | 100 µg/mL (≈ 376 µM) | 100 µg/mL (≈ 376 µM) | 100 µg/mL (≈ 376 µM) | 50 µg/mL (≈ 188 µM) | > 100 µg/mL | 100 µg/mL (≈ 376 µM) | > 100 µg/mL | 12.5 µg/mL (≈ 46.9 µM) | > 100 µg/mL | 12.5 µg/mL (≈ 46.9 µM) | > 100 µg/mL | 12.5 µg/mL (≈ 46.9 µM) | 12.5 µg/mL (≈ 46.9 µM) | 25 µg/mL (≈ 93.9 µM) | 12.5 µg/mL (≈ 46.9 µM) | 12.5 µg/mL (≈ 46.9 µM) | > 100 µg/mL | 50 µg/mL (≈ 188 µM) |
